In US20230271964A1, “5-AMINO-8-(4-PYRIDYL)-[1,2,4]TRIAZOLO[4,3-C]PYRIMIDIN-3-ONE COMPOUNDS FOR USE AGAINST CANCER” (ASTRAZENECA AB, priority 2020, published 2023):

Tests used:
[1] = target: human adenosine A1 receptor (Homo sapiens (Human), UniProt P30542); test: Adenosine receptor inhibition binding assay, [3H]DPCPX, A1 receptor membranes; conditions: 1 nM [3H]DPCPX, 25° C., 1 h, Ki from IC50 by Cheng-Prusoff; for Ki: read-out: A1 pKi (converted)
Protocol: (§1) Inhibition binding assays were performed using 0.2 µg of membranes prepared from HEK293 cells infected with BacMam human adenosine A2A receptor or 1.4 µg of membranes prepared from HEK293 cells infected with BacMam human adenosine A1 receptor. Membranes were incubated in 50 mM Tris-HCl (HEK293-hA2A; pH 7.4) or 50 mM Tris-HCl, 100 mM NaCl, 10 mM MgCl2 (CHO-hA1; pH 7.4) in the presence of varying concentrations of test compound and 1 nM [^3H]ZM241385 (HEK293-hA2A) or [^3H]DPCPX (CHO-hA1) at 25° C. for 1 h. The assay was then terminated by rapid filtration onto GF/B grade Unifilter plates using a TomTec cell harvester, followed by 5 × 0.5 ml washes with ddH2O. Nonspecific binding was defined in the presence of 1 µM CGS 15943 (HEK293-hA2A) or 1 µM DPCPX (CHO-hA1). Bound radioactivity was determined by liquid scintillation counting and inhibition curves were analysed using a four-parameter logistic equation. IC50 values were converted to Ki values with the Cheng-Prusoff equation using a KD value derived from saturation binding studies.

[2] = target: human adenosine A2A receptor (Homo sapiens (Human), UniProt P29274); test: Adenosine receptor inhibition binding assay, [3H]ZM241385, HEK293 A2A receptor membranes; conditions: 1 nM [3H]ZM241385, HEK293-hA2A membranes, 25° C., 1 h, Ki from IC50 by Cheng-Prusoff; for Ki: read-out: A2A pKi (converted)
human adenosine A2A receptor, sequence (P29274 whole entry): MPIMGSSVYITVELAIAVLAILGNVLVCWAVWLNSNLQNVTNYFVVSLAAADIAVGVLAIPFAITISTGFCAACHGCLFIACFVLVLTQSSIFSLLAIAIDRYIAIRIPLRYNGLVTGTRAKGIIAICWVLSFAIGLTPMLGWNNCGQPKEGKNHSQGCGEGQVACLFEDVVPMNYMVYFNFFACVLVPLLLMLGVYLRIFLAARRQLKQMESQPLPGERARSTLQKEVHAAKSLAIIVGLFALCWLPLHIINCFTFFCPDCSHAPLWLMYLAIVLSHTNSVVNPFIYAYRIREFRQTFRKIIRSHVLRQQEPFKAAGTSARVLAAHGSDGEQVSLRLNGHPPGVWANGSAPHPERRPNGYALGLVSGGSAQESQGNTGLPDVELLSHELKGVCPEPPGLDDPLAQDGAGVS
Protocol: as §1

human adenosine A1 receptor, sequence (P30542 whole entry): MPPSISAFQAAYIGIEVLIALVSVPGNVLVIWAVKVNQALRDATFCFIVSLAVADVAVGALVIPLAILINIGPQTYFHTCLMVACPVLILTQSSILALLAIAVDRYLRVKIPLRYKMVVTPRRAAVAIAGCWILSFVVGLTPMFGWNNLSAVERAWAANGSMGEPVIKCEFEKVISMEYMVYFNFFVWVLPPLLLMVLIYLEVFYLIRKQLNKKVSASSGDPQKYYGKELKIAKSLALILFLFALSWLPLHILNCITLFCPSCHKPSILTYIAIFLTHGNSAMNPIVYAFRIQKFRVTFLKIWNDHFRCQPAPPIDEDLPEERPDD

Row | Compound | A1 pKi [1] | A2A pKi [2] | Ki [1] [nM] | Ki [2] [nM]
1 | Cc1cc(-c2c(-c3ccc(F)cc3)nc(N)n3c(=O)n(Cc4nc(C)oc4C)nc23)cc(C)n1 [Example 1-32, 5-amino-2-[(2,5-dimethyloxazol-4-yl)methyl]-8-(2,6-dimethyl-4-pyridyl)-7-(4-fluorophenyl)-[1,2,4]triazolo[4,3-c]pyrimidin-3-one] | 7.0 | 9.5 | – | –
2 | COc1cccc(-c2nn(Cc3ccccc3)cc2Cn2nc3c(-c4cc(C)nc(C)c4)c(-c4ccccc4)nc(N)n3c2=O)c1 [Example 1-33, 5-amino-2-[[1-benzyl-3-(3-methoxyphenyl)pyrazol-4-yl]methyl]-8-(2,6-dimethyl-4-pyridyl)-7-phenyl-[1,2,4]triazolo[4,3-c]pyrimidin-3-one] | 7.1 | 8.1 | – | –
3 | Cc1ocnc1Cn1nc2c(-c3cc(C)[n+]([O-])c(C)c3)c(-c3ccccc3)nc(N)n2c1=O [Example 1-34, 5-amino-8-(2,6-dimethyl-1-oxido-pyridin-1-ium-4-yl)-2-[(5-methyloxazol-4-yl)methyl]-7-phenyl-[1,2,4]triazolo[4,3-c]pyrimidin-3-one] | 7.5 | 9.2 | – | –
4 | Cc1cc(-c2c(-c3ccccc3)nc(N)n3c(=O)n(Cc4ncoc4C)nc23)cc(CO)n1 [Example 1-39, 5-amino-8-[2-(hydroxymethyl)-6-methyl-4-pyridyl]-2-[(5-methyloxazol-4-yl)methyl]-7-phenyl-[1,2,4]triazolo[4,3-c]pyrimidin-3-one] | 6.8 | 9.5 | – | –
5 | Cc1cc(-c2c(-c3ccccc3)nc(N)n3c(=O)n(Cc4ncco4)nc23)cc(CO)n1 [Example 1-40, 5-amino-8-[2-(hydroxymethyl)-6-methyl-4-pyridyl]-2-(oxazol-2-ylmethyl)-7-phenyl-[1,2,4]triazolo[4,3-c]pyrimidin-3-one] | 6.9 | 8.8 | – | –
6 | Cc1cc(-c2c(-c3ccccc3)nc(N)n3c(=O)n(Cc4nccn4C)nc23)cc(CO)n1 [Example 1-41, 5-amino-8-[2-(hydroxymethyl)-6-methyl-4-pyridyl]-2-[(1-methylimidazol-2-yl)methyl]-7-phenyl-[1,2,4]triazolo[4,3-c]pyrimidin-3-one] | 7.2 | 9.1 | – | –
7 | Cc1cc(-c2c(-c3ccccc3)nc(N)n3c(=O)n(Cc4cocn4)nc23)cc(CO)n1 [Example 1-42, 5-amino-8-[2-(hydroxymethyl)-6-methyl-4-pyridyl]-2-(oxazol-4-ylmethyl)-7-phenyl-[1,2,4]triazolo[4,3-c]pyrimidin-3-one] | 6.7 | 8.5 | – | –
8 | Cc1cc(-c2c(-c3ccccc3)nc(N)n3c(=O)n(Cc4c(C)ncn4C)nc23)cc(CO)n1 [Example 1-44, 5-amino-2-[(3,5-dimethylimidazol-4-yl)methyl]-8-[2-(hydroxymethyl)-6-methyl-4-pyridyl]-7-phenyl-[1,2,4]triazolo[4,3-c]pyrimidin-3-one] | 6.8 | 8.4 | – | –
9 | Cc1cc(-c2c(-c3ccccc3)nc(N)n3c(=O)n(Cc4ccn(C)n4)nc23)cc(CO)n1 [Example 1-45, 5-amino-8-[2-(hydroxymethyl)-6-methyl-4-pyridyl]-2-[(1-methylpyrazol-3-yl)methyl]-7-phenyl-[1,2,4]triazolo[4,3-c]pyrimidin-3-one] | 7.2 | 9.3 | – | –
10 | [2H]c1c([2H])c([2H])c(-c2nc(N)n3c(=O)n(Cc4ncoc4C)nc3c2-c2cc(C)nc(CO)c2)c([2H])c1[2H] [Example 1-47, 5-amino-8-[2-(hydroxymethyl)-6-methyl-4-pyridyl]-2-[(5-methyloxazol-4-yl)methyl]-7-(2,3,4,5,6-pentadeuteriophenyl)-[1,2,4]triazolo[4,3-c]pyrimidin-3-one] | – | – | 158 | 0.316
11 | [2H]c1c([2H])c([2H])c(-c2nc(N)n3c(=O)n(Cc4nccn4C)nc3c2-c2cc(C)nc(CO)c2)c([2H])c1[2H] [Example 1-48, 5-amino-8-[2-(hydroxymethyl)-6-methyl-4-pyridyl]-2-[(1-methylimidazol-2-yl)methyl]-7-(2,3,4,5,6-pentadeuteriophenyl)-[1,2,4]triazolo[4,3-c]pyrimidin-3-one] | – | – | 158 | 1.26
12 | [2H]c1c([2H])c([2H])c(-c2nc(N)n3c(=O)n(Cc4cocn4)nc3c2-c2cc(C)nc(CO)c2)c([2H])c1[2H] [Example 1-49, 5-amino-8-[2-(hydroxymethyl)-6-methyl-4-pyridyl]-2-(oxazol-4-ylmethyl)-7-(2,3,4,5,6-pentadeuteriophenyl)-[1,2,4]triazolo[4,3-c]pyrimidin-3-one] | – | – | 316 | 1.58
13 | Cc1ocnc1Cn1nc2c(-c3cc(Cl)nc(CO)c3)c(-c3ccccc3)nc(N)n2c1=O [Example 1-54, 5-amino-8-[2-chloro-6-(hydroxymethyl)-4-pyridyl]-2-[(5-methyloxazol-4-yl)methyl]-7-phenyl-[1,2,4]triazolo[4,3-c]pyrimidin-3-one] | 7.2 | 9.7 | – | –
14 | [2H]c1c([2H])c([2H])c(-c2nc(N)n3c(=O)n(Cc4nccn4C)nc3c2-c2cc(Cl)nc(CO)c2)c([2H])c1[2H] [Example 1-56, 5-amino-8-[2-chloro-6-(hydroxymethyl)-4-pyridyl]-2-[(1-methylimidazol-2-yl)methyl]-7-(2,3,4,5,6-pentadeuteriophenyl)-[1,2,4]triazolo[4,3-c]pyrimidin-3-one] | – | – | 5.01 | 0.158
15 | [2H]c1c([2H])c([2H])c(-c2nc(N)n3c(=O)n(Cc4ncoc4C)nc3c2-c2cc(Cl)nc(CO)c2)c([2H])c1[2H] [Example 1-57, 5-amino-8-[2-chloro-6-(hydroxymethyl)-4-pyridyl]-2-[(5-methyloxazol-4-yl)methyl]-7-(2,3,4,5,6-pentadeuteriophenyl)-[1,2,4]triazolo[4,3-c]pyrimidin-3-one] | – | – | 126 | 0.1
16 | Cc1ocnc1Cn1nc2c(-c3cc(Cl)nc(CO)c3)c(-c3ccc(F)cc3)nc(N)n2c1=O [Example 1-59, 5-amino-8-[2-chloro-6-(hydroxymethyl)-4-pyridyl]-7-(4-fluorophenyl)-2-[(5-methyloxazol-4-yl)methyl]-[1,2,4]triazolo[4,3-c]pyrimidin-3-one] | 6.8 | 9.9 | – | –
17 | [2H]c1c([2H])c([2H])c(-c2nc(N)n3c(=O)n(Cc4nccn4C)nc3c2-c2cc(CO)nc(OC)c2)c([2H])c1[2H] [Example 1-62, 5-amino-8-[2-(hydroxymethyl)-6-methoxy-4-pyridyl]-2-[(1-methylimidazol-2-yl)methyl]-7-(2,3,4,5,6-pentadeuteriophenyl)-[1,2,4]triazolo[4,3-c]pyrimidin-3-one] | – | – | 126 | 0.251
18 | [2H]c1c([2H])c([2H])c(-c2nc(N)n3c(=O)n(Cc4ncoc4C)nc3c2-c2cc(CO)nc(OC)c2)c([2H])c1[2H] [Example 1-63, 5-amino-8-[2-(hydroxymethyl)-6-methoxy-4-pyridyl]-2-[(5-methyloxazol-4-yl)methyl]-7-(2,3,4,5,6-pentadeuteriophenyl)-[1,2,4]triazolo[4,3-c]pyrimidin-3-one] | – | – | 316 | 0.0794
19 | COc1cc(-c2c(-c3ccc(F)cc3)nc(N)n3c(=O)n(Cc4nccn4C)nc23)cc(CO)n1 [Example 1-65, 5-amino-7-(4-fluorophenyl)-8-[2-(hydroxymethyl)-6-methoxy-4-pyridyl]-2-[(1-methylimidazol-2-yl)methyl]-[1,2,4]triazolo[4,3-c]pyrimidin-3-one] | 7.1 | 10.0 | – | –
